Measurements as given in ChEMBL document CHEMBL4392851, “Synthesis and structure-activity relationships for new 6-fluoroquinoline derivatives with antiplasmodial activity” (Bioorg Med Chem, 2019).

Key:
[1] = system: Plasmodium falciparum; assay: Antiplasmodial activity against chloroquine-sensitive Plasmodium falciparum NF54 erythrocytic stages incubated for 48 hrs by [3H]-hypoxanthine incorporation assay; type: functional, organism-based
[2] = Selectivity index, ratio of IC50 for rat L6 cells to IC50 for chloroquine-sensitive Plasmodium falciparum NF54 erythrocytic stages; type: toxicity; conditions: read-out: Ratio IC50
[3] = system: L6; assay: Cytotoxicity in rat L6 cells assessed as reduction in cell viability incubated for 72 hrs by alamar blue assay; type: cell-based; conditions: L6, 72 h
[4] = system: Plasmodium falciparum; assay: Antiplasmodial activity against chloroquine and pyrimethamine resistant Plasmodium falciparum K1 erythrocytic stages incubated for 48 hrs by [3H]-hypoxanthine incorporation assay; type: functional, organism-based
[5] = Selectivity index, ratio of IC50 for rat L6 cells to IC50 for chloroquine and pyrimethamine resistant Plasmodium falciparum K1; type: toxicity; conditions: read-out: Ratio IC50
[6] = Effective permeability by PAMPA; type: ADME; conditions: read-out: Peff
[7] = system: Plasmodium berghei; assay: Antiplasmodial activity against GFP-transfected Plasmodium berghei ANKA infected in NMRI mouse assessed as reduction in parasitaemia at 50 mg/kg/day, ip for consecutive 4 days (4, 24, 48 and 72 hrs post infection) and measured up to 20 days after infection relative to untreated control; type: functional; design: scale not given: the % may be the effect or the level left
[8] = system: Plasmodium berghei
Description: Antiplasmodial activity against GFP-transfected Plasmodium berghei ANKA infected in NMRI mouse assessed as mean survival days at 50 mg/kg/day, ip for consecutive 4 days (4, 24, 48 and 72 hrs post infection) and measured up to 20 days after infection (Rvb = 6 to 7 days)

Structure (SMILES) | IC50 [1] [µM] | selectivity ratio [2] | IC50 ([3]; read-out: IC50) [µM] | IC50 [4] [µM] | selectivity ratio [5] | Papp [6] [×10⁻⁶ cm/s] | Activity [7] [%] | MSD [8] [days] | IC50 [3] [µM]
O=C(CN1CCCC1)Nc1cc(-c2ccc(CN3CCOCC3)cc2)nc2ccc(F)cc12 | 1.04 | 54.6 | 56.8 | 0.82 | 69.3 | – | – | – | –
Fc1ccc2nc(-c3ccc(CN4CCOCC4)cc3)cc(CNCCN3CCN(c4ccccc4)CC3)c2c1 | 0.02 | 732 | 14.6 | 0.037 | 396 | 2.39 | – | – | –
CC(C)(C)OC(=O)N1CCN(CCNCc2cc(-c3ccc(CN4CCOCC4)cc3)nc3ccc(F)cc23)CC1 | 0.018 | 1100 | 19.8 | 0.041 | 484 | 4.57 | – | – | –
CC(C)(C)OC(=O)N1CCN(CCC(=O)Nc2cc(-c3ccc(CN4CCOCC4)cc3)nc3ccc(F)cc23)CC1 | 0.26 | 216 | 56.2 | 0.3 | 187 | – | – | – | –
O=C(c1cc(-c2ccc(CN3CCOCC3)cc2)nc2ccc(F)cc12)N1CCC(O)CC1 | 64 | 1.57 | 101 | – | – | 3.67 | – | – | –
CC(C)(C)C(=O)N1CCN(CCNC(=O)c2cc(-c3ccc(CN4CCOCC4)cc3)nc3ccc(F)cc23)CC1 | 0.005 | 16000 | 80 | – | – | 6.11 | 25.2 | 4 | –
Nc1cc(-c2ccc(CN3CCOCC3)cc2)nc2ccc(F)cc12 | 0.23 | 93.3 | 21.5 | 0.39 | 55 | – | – | – | –
CCC(=O)N1CCN(C(=O)c2cc(-c3ccc(CN4CCOCC4)cc3)nc3ccc(F)cc23)CC1 | 7.38 | 12.6 | 92.4 | – | – | 5.53 | – | – | –
O=C(c1cc(-c2ccc(CN3CCOCC3)cc2)nc2ccc(F)cc12)N1CCCCC1 | 37.7 | 2.69 | 102 | – | – | – | – | – | –
CCCN1CCN(Cc2cc(-c3ccc(CN4CCOCC4)cc3)nc3ccc(F)cc23)CC1 | 1.94 | 7.67 | 14.9 | – | – | 9.26 | – | – | –
CN1CCN(Cc2ccc(-c3cc(NC(=O)CCN4CCCC4)c4cc(F)ccc4n3)cc2)CC1 | 0.002 | 7780 | 15.6 | 0.0029 | 5370 | – | 99.6 | 16 | –
CC(C)(C)C(=O)N1CCN(CC(=O)Nc2cc(-c3ccc(CN4CCOCC4)cc3)nc3ccc(F)cc23)CC1 | 9.57 | 7.82 | 74.8 | 4.91 | 15.2 | – | – | – | –
CCOC(=O)N1CCC(NC(=O)c2cc(-c3ccc(CN4CCOCC4)cc3)nc3ccc(F)cc23)CC1 | 7.13 | 12.7 | 90.5 | – | – | 0.19 | – | – | –
O=C(NCCc1ccccc1)c1cc(-c2ccc(CN3CCOCC3)cc2)nc2ccc(F)cc12 | 4.62 | 3.57 | 16.5 | – | – | – | – | – | –
Fc1ccc2nc(-c3ccc(CN4CCOCC4)cc3)cc(CNCCN3CCCC3)c2c1 | 0.0011 | 48900 | 53.8 | 0.0011 | 48900 | 4.55 | 99.4 | 10 | –
CC(C)(C)C(=O)N1CCN(CCC(=O)Nc2cc(-c3ccc(CN4CCOCC4)cc3)nc3ccc(F)cc23)CC1 | 0.53 | 83.9 | 44.5 | 0.36 | 124 | – | – | – | –
CC(C)(C)OC(=O)N1CCN(CC(=O)Nc2cc(-c3ccc(CN4CCOCC4)cc3)nc3ccc(F)cc23)CC1 | 7.53 | 11.8 | 89.2 | 3.5 | 25.5 | – | – | – | –
O=C(NCc1ccccc1)c1cc(-c2ccc(CN3CCOCC3)cc2)nc2ccc(F)cc12 | 5.99 | 17.2 | 103 | – | – | – | – | – | –
CC(C)(C)N1CCN(CCNC(=O)c2cc(-c3ccc(CN4CCOCC4)cc3)nc3ccc(F)cc23)CC1 | 3.11 | 32.1 | 100 | – | – | 2.09 | – | – | –
O=C(CCN1CCCC1)Nc1cc(-c2ccc(CN3CCOCC3)cc2)nc2ccc(F)cc12 | 0.004 | 30800 | 123 | 0.011 | 11200 | 10.1 | 33.9 | 4 | –
CN1CCN(CCC(=O)Nc2cc(-c3ccc(CN4CCOCC4)cc3)nc3ccc(F)cc23)CC1 | 0.61 | 51.8 | 31.6 | – | – | – | – | – | –
CCC(=O)N1CCN(Cc2cc(-c3ccc(CN4CCOCC4)cc3)nc3ccc(F)cc23)CC1 | 10.1 | 3.83 | 38.6 | – | – | 7.15 | – | – | –
O=C(NCC(F)(F)F)c1cc(-c2ccc(CN3CCOCC3)cc2)nc2ccc(F)cc12 | 8.78 | 11.3 | 98.9 | – | – | – | – | – | –
O=C(NC1CCNCC1)c1cc(-c2ccc(CN3CCOCC3)cc2)nc2ccc(F)cc12 | 0.99 | 69.9 | 69.2 | – | – | – | – | – | –
O=C(NCCc1ccccn1)c1cc(-c2ccc(CN3CCOCC3)cc2)nc2ccc(F)cc12 | 14.9 | 3.6 | 53.5 | – | – | 9.35 | – | – | –
CC(NC(=O)c1cc(-c2ccc(CN3CCOCC3)cc2)nc2ccc(F)cc12)c1ccccc1 (racemic) | 5.6 | 12.9 | 72.4 | – | – | – | – | – | –
C[C@@H]1CC[C@H]2[C@@H](C)C(=O)O[C@@H]3O[C@@]4(C)CC[C@@H]1[C@]32OO4 [ARTEMISININ] | – | – | – | 0.0064 | 70400 | – | – | – | –
CCN(CC)CCCC(C)Nc1ccnc2cc(Cl)ccc12 (stereo not given) [CHLOROQUINE] | – | – | – | – | – | – | 99.6 | 20 | –
COc1cc([C@@H]2c3cc4c(cc3[C@H](O)[C@H]3COC(=O)[C@H]23)OCO4)cc(OC)c1OC [PODOFILOX] | – | – | – | – | – | – | – | – | 0.012
